Source: patent US20210230616A1, “METHODS FOR ISOLATING CELLS WITHOUT THE USE OF TRANSGENIC MARKER SEQUENCES” (INSTITUTE OF GENETICS AND DEVELOPMENTAL BIOLOGY, CHINESE …, priority 2017, published 2021)

Assays:
Assay type in all cases: in vivo
[1] = tested on: mutant plant with heterozygous P165L substitution on ZmALS2; assay: Herbicide resistance of ZmALS-P165 edited corn plant
Source text: To establish the co-editing system in corn, acetolactate synthase site corresponding TaALS-P173 was targeted to test the herbicide resistance. It has been reported single edited allele on ZmALS2 could confer plants herbicide resistance (Svitashev et al, 2016). So the binary vector targeting ZmALS-P165 was transformed to immature embryos (ZmALS-P165 site is conserved in both ZmALS1 and ZmALS2). Three independent mutants were obtained from the regenerated plants and their genotypes are same.

wild-type plants [2] = assay: Nicosulfuron selection medium, wild-type wheat plants
Source text: 30 days later, twelve seedlings survived, and 9 of them had base mutations at the TaALS-S2 site. The efficiency of selecting the ALS-S2 site mutant plants using nicosulfuron selection medium was 75% (9/12).

wild-type plants [3] = assay: Nicosulfuron selection medium, wild-type rice plants; conditions: 0.0065 PPM Nicosulfuron
Protocol: The pH-nCas9-PBE-OsALS-S1/S2 binary vector was transformed into Agrobacterium strain AGL1 by electroporation. Agrobacterium-mediated transformation, tissue culture and regeneration in rice cultivar Zhonghua 11 were performed according to Shan et al. (Shan, Q. et al. Targeted genome modification of crop plants using a CRISPR-Cas system. Nat. Biotechnol. 31, 686-688 (2013)). Hygromycin selection (50 μg/ml) was used during tissue culture. (This experiment is a proof of concept, so the plants were selected with hygromycin first, then by nicosulfuron. The objective was to first obtain transgenic plants and then screen for herbicide resistance). […] Four seedlings survived after 14 days. DNA was extracted from the four seedlings. The ALS gene was amplified by PCR, sequenced to determine the mutant genotype.

SMILES | resistance of mutant corn plant to the herbicide [1] | survival of wild-type plants on selection medium (wild-type plants [2]) | survival of wild-type plants on selection medium (wild-type plants [3])
COC(=O)c1ccc(CNS(C)(=O)=O)cc1S(=O)(=O)NC(=O)Nc1nc(OC)cc(OC)n1 [Mesosulfuron-methyl] | showed resistance | – | –
COc1cc(OC)nc(NC(=O)NS(=O)(=O)c2ncccc2C(=O)N(C)C)n1 [Nicosulfuron] | – | unable to survive | cannot survive
